Measurements as given in publication PMC7259601 (PLoS ONE, 2020).

How the values were obtained:
KDM1A = KDM1A (Homo sapiens, UniProt O60341); test: MALDI-TOF mass spectrometry of FAD-ORY-2001 adducts; assay type: binding
Procedure: The sample was initially purified by reversed phase chromatography in a ZipTipC18 pipette tip (Millipore, USA) wet using column and equilibrated with 0.1% TFA. The sample was bound to the column by repeated aspiring and dispensing to achieve maximum binding. The ZipTip pipette tip was washed three times with 0.1% TFA and eluted in 4 µl. of 50 % ACN/ 0.1% TFA. 1 µl of eluted sample was loaded onto an AnchorChip MALDI target (Bruker, Germany); 2 µl. of matrix solution (0.3 mg/ml HCCA -alpha-cyano-4-hydroxycinamic acid in EtOH/acetone 2:1) was added and the mixture was allowed to dry at room temperature. The sample preparations were analyzed in an AutoFlex Speed MALDI TOF/TOF mass spectrometer (Bruker, Germany), equipped with a Nd:YAG laser. MS spectra were acquired in Reflector mode, with either positive or negative polarity. MSMS post source-decay fragmentation spectra of selected precursor ions were obtained using the LIFT module (Bruker, Germany).

[1] = system: FAD cofactor (in KDM1A or free); test: KDM1A binding analysis (FAD absorbance at 450 nm)
Procedure: Analysis of binding of inhibitors to KDM1A was as previously described [22](Yang et al., 2007) with minor modifications. The binding to FAD (present in the enzyme or free) was analyzed by measuring the decrease in absorbance at 450nm in a Tecan Infinite F200 microplate reader. Briefly, KDM1A enzyme was mixed with the inhibitor (without substrate) and the absorbance at 450nm was compared with the absorbance of the KDM1A enzyme without inhibitor. The reaction is monitored during 30 min and values used to calculate Kobs.
Absorbance at 450 nm was measured as described and Kobs was calculated following the equation: […]

[2] = molecular target: T1, A1 (h) (antagonist radioligand) (Homo sapiens, UniProt P30542); test: CEREP Diversity Panel; assay type: binding
T1 construct: purchased CEREP (Eurofins Cerep)
Procedure: (§1) […]. MAO-A inhibition at 10 μM was 37%, in line with internal data.

[3] = molecular target: T2, norepinephrine transporter (h) (antagonist radioligand) (Homo sapiens, UniProt P23975); test: CEREP Diversity Panel; assay type: binding
T2 construct: purchased CEREP (Eurofins Cerep)
Procedure: as §1

[4] = molecular target: T3, beta 2 (h) (agonist radioligand) (Homo sapiens, UniProt P07550); test: CEREP Diversity Panel; assay type: binding
T3 construct: purchased CEREP (Eurofins Cerep)
Procedure: as §1

[5] = molecular target: T4, BLT1 (LTB4) (h) (agonist radioligand) (Homo sapiens, UniProt Q15722); test: CEREP Diversity Panel; assay type: binding
T4 construct: purchased CEREP (Eurofins Cerep)
Procedure: as §1

[6] = molecular target: T5, NK2 (h) (agonist radioligand) (Homo sapiens, UniProt P21452); test: CEREP Diversity Panel; assay type: binding
T5 construct: purchased CEREP (Eurofins Cerep)
Procedure: as §1

[7] = molecular target: T6, EP2 (h) (agonist radioligand) (Homo sapiens, UniProt P43116); test: CEREP Diversity Panel; assay type: binding
T6 construct: purchased CEREP (Eurofins Cerep)
Procedure: as §1

[8] = molecular target: T7, CCK1 (CCKA) (h) (agonist radioligand) (Homo sapiens, UniProt P32238); test: CEREP Diversity Panel; assay type: binding
T7 construct: purchased CEREP (Eurofins Cerep)
Procedure: as §1

[9] = molecular target: T8, choline transporter (CHT1) (h) (antagonist radioligand) (Homo sapiens, UniProt Q9GZV3); test: CEREP Diversity Panel; assay type: binding
T8 construct: purchased CEREP (Eurofins Cerep)
Procedure: as §1

[10] = molecular target: T9, CB2 (h) (agonist radioligand) (Homo sapiens, UniProt P34972); test: CEREP Diversity Panel; assay type: binding
T9 construct: purchased CEREP (Eurofins Cerep)
Procedure: as §1

[11] = molecular target: T10, MC4 (h) (agonist radioligand) (Homo sapiens, UniProt P32245); test: CEREP Diversity Panel; assay type: binding
T10 construct: purchased CEREP (Eurofins Cerep)
Procedure: as §1

[12] = molecular target: T11, H1 (h) (antagonist radioligand) (Homo sapiens, UniProt P35367); test: CEREP Diversity Panel; assay type: binding
T11 construct: purchased CEREP (Eurofins Cerep)
Procedure: as §1

[13] = molecular target: T12, AT1 (h) (antagonist radioligand) (Homo sapiens, UniProt P30556); test: CEREP Diversity Panel; assay type: binding
T12 construct: purchased CEREP (Eurofins Cerep)
Procedure: as §1

[14] = molecular target: T13, D1 (h) (antagonist radioligand) (Homo sapiens, UniProt P21728); test: CEREP Diversity Panel; assay type: binding
T13 construct: purchased CEREP (Eurofins Cerep)
Procedure: as §1

[15] = molecular target: T14, PR (h) (agonist radioligand) (Homo sapiens, UniProt P06401); test: CEREP Diversity Panel; assay type: binding
T14 construct: purchased CEREP (Eurofins Cerep)
Procedure: as §1

[16] = molecular target: T15, B1 (h) (agonist radioligand) (Homo sapiens, UniProt P46663); test: CEREP Diversity Panel; assay type: binding
T15 construct: purchased CEREP (Eurofins Cerep)
Procedure: as §1

[17] = molecular target: T16, NOP (ORL1) (h) (agonist radioligand) (Homo sapiens, UniProt P41146); test: CEREP Diversity Panel; assay type: binding
T16 construct: purchased CEREP (Eurofins Cerep)
Procedure: as §1

[18] = molecular target: T17, CB1 (h) (agonist radioligand) (Homo sapiens, UniProt P21554); test: CEREP Diversity Panel; assay type: binding
T17 construct: purchased CEREP (Eurofins Cerep)
Procedure: as §1

[19] = system: isolated Sprague-Dawley rats; test: Elevated Plus Maze, rat isolation rearing model; assay type: in vivo; settings: 0.16 or 0.48 mg/kg/day in drinking water, approximately 1 month
Procedure: Sprague Dawley Rats: Right after the weaning (post natal day 21-23), 72 Sprague-Dawley male rats (Charles River, bred in the UAB Animal facility) were divided in two groups: Control (N = 18), maintained 3-4 animals per cage; Isolated (N = 54), 1 animal per cage ([…] 1291H Eurostandard type III with ECOPURE CHIPS 6 bedding material, Harlan). Animals were maintained at 21 ± 2 °C controlled temperature in a 12 hr light / dark cycle (lights on at 8:00 am) with ad libitum access to food (2014 TEKLAD, Harlan) and water. […] Control animals were treated with vehicle. The administration route was drinking water and the vehicle 1.8% 2-Hydroxypropyl-b-cyclodextrin. Drug concentration was adjusted weekly by body weight and water consumption. During the last week of treatment, all animals were tested in the EPM and, on a different day, in the RI test (N = 12 / group). […]
The EPM consisted of four arms at right angles to each other connected to a central square and maintained elevated 50 cm above the floor. […] The animal was placed facing a closed arm, and its movements were video-recorded for 5 min and analyzed by video-tracking using SMART® (v3.0, PanLab, SLU, Spain).
Elevated Plus Maze (EPM): Movements were video-recorded for 5 min and analyzed by video-tracking using SMART® (v3.0, PanLab, SLU, Spain).

H3K9 ac = test: Epigenetic selectivity profile; assay type: biochemical; design: dose or concentration left out as unconfirmed
Procedure: as §1

[20] = system: guanylyl cyclase (h) (activator effect); test: CEREP Diversity Panel; assay type: biochemical, human; design: dose or concentration left out as unconfirmed
Procedure: as §1

T3 sequence (P07550 whole entry): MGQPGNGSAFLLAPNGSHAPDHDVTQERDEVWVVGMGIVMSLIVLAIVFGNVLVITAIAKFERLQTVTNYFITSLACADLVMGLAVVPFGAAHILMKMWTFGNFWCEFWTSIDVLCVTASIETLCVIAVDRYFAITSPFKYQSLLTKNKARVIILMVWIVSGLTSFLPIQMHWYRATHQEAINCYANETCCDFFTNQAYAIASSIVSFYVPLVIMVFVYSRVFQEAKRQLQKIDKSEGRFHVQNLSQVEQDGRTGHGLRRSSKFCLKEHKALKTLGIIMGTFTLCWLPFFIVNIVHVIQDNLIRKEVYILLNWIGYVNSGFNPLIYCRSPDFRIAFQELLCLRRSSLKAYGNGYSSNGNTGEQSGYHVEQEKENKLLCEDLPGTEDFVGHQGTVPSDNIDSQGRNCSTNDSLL
T9 sequence (P34972 whole entry): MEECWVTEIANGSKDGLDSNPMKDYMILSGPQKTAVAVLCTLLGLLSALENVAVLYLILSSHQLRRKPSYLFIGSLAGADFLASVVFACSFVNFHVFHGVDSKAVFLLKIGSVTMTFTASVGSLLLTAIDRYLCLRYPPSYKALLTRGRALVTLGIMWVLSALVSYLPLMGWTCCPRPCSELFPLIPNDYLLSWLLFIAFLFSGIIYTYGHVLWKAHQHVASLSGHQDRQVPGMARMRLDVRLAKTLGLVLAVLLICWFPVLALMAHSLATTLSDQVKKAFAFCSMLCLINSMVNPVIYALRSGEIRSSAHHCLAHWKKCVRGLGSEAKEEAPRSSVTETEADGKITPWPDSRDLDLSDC
T5 sequence (P21452 whole entry): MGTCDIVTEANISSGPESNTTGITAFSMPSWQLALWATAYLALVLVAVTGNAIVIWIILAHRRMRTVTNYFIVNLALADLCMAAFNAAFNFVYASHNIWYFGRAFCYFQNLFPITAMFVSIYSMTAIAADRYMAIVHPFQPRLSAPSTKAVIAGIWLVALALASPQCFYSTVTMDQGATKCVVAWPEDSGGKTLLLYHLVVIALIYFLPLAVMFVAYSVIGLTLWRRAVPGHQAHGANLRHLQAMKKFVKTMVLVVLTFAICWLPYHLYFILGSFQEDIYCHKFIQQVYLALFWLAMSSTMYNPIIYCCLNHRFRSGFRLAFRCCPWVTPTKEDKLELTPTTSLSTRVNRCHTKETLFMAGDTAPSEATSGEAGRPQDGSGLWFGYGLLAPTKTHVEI
T8 sequence (Q9GZV3 whole entry): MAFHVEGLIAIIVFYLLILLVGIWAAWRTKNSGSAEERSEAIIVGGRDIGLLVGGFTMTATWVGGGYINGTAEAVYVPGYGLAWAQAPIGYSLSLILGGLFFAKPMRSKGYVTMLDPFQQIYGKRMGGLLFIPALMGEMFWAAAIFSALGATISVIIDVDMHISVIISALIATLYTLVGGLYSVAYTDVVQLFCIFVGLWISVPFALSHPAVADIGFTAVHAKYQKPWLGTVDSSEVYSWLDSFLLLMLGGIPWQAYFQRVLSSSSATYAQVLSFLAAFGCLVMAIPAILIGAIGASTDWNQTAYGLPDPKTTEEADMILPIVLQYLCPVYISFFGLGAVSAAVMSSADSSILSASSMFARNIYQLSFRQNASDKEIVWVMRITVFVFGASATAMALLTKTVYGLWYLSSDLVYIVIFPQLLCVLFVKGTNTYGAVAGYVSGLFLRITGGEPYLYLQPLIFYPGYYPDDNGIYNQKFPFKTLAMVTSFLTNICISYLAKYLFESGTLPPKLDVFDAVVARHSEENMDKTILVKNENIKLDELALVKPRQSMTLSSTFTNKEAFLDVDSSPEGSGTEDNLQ
T7 sequence (P32238 whole entry): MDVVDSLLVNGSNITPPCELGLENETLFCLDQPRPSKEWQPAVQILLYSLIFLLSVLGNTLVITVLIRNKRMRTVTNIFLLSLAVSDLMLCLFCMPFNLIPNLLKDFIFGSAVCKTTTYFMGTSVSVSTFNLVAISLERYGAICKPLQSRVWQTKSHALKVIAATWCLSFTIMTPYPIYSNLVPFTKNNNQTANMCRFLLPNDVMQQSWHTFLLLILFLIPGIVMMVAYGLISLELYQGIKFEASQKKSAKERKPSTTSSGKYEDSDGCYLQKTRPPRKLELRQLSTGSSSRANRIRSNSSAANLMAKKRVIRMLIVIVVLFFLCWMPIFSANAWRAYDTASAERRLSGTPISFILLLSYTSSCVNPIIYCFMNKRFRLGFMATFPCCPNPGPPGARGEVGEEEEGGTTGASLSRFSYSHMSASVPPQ
T13 sequence (P21728 whole entry): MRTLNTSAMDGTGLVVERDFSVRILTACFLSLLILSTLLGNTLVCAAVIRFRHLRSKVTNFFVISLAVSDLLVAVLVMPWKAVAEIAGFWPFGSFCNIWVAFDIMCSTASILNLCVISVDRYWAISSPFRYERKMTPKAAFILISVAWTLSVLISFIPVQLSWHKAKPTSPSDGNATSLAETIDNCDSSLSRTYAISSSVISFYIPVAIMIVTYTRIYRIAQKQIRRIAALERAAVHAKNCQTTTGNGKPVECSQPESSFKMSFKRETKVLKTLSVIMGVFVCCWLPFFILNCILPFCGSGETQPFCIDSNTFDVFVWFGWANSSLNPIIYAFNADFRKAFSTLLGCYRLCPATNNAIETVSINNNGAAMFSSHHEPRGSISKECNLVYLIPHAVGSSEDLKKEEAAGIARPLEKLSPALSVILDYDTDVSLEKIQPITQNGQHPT
T11 sequence (P35367 whole entry): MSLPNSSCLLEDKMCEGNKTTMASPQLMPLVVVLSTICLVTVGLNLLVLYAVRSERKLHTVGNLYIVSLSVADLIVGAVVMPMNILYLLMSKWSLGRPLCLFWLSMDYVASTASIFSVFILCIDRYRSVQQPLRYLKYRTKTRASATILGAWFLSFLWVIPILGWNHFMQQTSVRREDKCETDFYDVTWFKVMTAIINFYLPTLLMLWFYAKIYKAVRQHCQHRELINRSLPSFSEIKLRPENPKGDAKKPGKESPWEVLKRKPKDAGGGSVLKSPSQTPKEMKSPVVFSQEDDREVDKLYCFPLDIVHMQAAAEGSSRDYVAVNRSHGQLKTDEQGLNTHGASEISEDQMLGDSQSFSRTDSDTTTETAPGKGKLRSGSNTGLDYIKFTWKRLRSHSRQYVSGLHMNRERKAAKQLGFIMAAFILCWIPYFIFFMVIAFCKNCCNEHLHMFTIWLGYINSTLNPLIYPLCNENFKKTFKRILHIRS
T14 sequence (P06401 whole entry): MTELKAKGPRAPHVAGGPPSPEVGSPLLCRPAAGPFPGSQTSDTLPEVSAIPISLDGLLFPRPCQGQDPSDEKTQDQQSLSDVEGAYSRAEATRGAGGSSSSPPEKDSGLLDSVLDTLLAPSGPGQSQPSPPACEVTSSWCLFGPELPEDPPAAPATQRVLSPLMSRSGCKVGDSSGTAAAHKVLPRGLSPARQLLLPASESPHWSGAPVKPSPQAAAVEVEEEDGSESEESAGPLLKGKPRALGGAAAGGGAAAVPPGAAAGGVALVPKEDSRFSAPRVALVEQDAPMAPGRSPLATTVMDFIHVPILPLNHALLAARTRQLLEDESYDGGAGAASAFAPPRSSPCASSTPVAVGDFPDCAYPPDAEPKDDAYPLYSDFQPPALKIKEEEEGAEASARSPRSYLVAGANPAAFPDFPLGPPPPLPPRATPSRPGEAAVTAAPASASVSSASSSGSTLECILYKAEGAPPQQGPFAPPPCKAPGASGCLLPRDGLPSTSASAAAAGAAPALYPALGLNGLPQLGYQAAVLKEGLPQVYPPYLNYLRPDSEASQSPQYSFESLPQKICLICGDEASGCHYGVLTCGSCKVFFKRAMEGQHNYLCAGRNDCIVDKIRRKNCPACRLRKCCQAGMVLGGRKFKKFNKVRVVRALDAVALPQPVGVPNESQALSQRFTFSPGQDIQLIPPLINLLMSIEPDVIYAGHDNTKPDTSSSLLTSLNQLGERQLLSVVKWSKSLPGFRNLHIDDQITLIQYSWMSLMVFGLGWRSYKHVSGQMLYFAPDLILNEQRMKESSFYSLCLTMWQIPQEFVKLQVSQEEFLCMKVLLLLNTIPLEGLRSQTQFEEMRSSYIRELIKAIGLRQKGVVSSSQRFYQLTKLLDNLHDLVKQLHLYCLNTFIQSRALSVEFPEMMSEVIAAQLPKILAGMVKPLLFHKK
T2 sequence (P23975 whole entry): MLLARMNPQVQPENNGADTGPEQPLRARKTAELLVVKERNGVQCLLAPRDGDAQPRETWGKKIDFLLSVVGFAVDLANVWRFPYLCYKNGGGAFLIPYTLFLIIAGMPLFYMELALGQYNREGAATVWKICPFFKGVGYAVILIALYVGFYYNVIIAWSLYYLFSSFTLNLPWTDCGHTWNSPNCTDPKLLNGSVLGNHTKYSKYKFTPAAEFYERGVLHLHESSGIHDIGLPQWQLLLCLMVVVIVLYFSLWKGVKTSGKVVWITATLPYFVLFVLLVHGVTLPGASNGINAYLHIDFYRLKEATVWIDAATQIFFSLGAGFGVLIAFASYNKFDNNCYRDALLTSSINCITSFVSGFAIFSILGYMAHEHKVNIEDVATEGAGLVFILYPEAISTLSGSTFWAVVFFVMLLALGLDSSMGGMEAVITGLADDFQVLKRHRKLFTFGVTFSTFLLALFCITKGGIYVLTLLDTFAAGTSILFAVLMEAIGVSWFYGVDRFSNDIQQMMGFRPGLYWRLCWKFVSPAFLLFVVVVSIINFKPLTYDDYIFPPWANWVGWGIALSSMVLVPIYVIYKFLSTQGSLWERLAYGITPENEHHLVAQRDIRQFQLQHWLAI
T10 sequence (P32245 whole entry): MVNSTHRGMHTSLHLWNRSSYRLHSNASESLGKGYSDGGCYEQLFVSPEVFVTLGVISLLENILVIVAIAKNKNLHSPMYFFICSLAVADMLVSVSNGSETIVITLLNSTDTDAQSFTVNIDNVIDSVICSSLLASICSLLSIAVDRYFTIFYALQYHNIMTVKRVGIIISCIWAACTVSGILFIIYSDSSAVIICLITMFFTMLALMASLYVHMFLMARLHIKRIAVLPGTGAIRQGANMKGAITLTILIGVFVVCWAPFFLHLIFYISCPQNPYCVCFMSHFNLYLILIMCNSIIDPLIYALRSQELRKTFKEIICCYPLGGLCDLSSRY

## Nc1nnc(CN[C@@H]2C[C@H]2c2ccc(OCc3ccccc3)cc2)o1 [ORY-2001, vafidemstat]
KDM1A
  adduct formation with KDM1A: adduct formation
[1]
  binding to free FAD: does not bind free FAD
[1]; absorbance spectrum and MALDI-TOF
  mode of inhibition of KDM1A (FAD cofactor): covalent binding
[2]
  inhibition at 10 µM: 0%
[3]
  inhibition at 10 µM: 26%
[4]
  inhibition at 10 µM: 5%
[5]
  inhibition at 10 µM: 33%
[6]
  inhibition at 10 µM: 2%
[7]
  inhibition at 10 µM: 18%
[8]
  inhibition at 10 µM: -2%
[9]
  inhibition at 10 µM: -2%
[10]
  inhibition at 10 µM: 14%
[11]
  inhibition at 10 µM: 7%
[12]
  inhibition at 10 µM: -9%
[13]
  inhibition at 10 µM: -2%
[14]
  inhibition at 10 µM: -5%
[15]
  inhibition at 10 µM: -11%
[16]
  inhibition at 10 µM: -1%
[17]
  inhibition at 10 µM: 0%
[18]
  inhibition at 10 µM: 5%
[19]
  anxiety and locomotor activity in the EPM: did not produce any significant effect on anxiety or locomotor activity
H3K9 ac
  % inhibition: -5%
[20]
  % inhibition: 1%
